Laboratory results as given in patent US20230100838A1 (Revolution Medicines, Inc., priority 2019, published 2023).

Tests used:
Assay type in all cases: binding
[1] = biological target: K-Ras G12S (Homo sapiens, UniProt P01116, G12S); experiment: K-Ras G12S cross-linking assay (comparable procedure, conjugate formation, TOF mass spectrometry); design: key: 0: No observed x-linking
Procedure, shortened: (§1)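 5 μM protein (final, from 50 μM) in HEPES/NaCl/MgCl2 buffer pH 7.4 with compound typically at 2, 10 and 25 μM, room temperature, 1 and 24 h endpoints; formic acid quench. Intact-protein LC–TOF MS; percent modification is covalent adduct peak height over total K-Ras peak height.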

[2] = biological target: T1, GDP-loaded K-Ras (1-169) G12D, C51S, C80L, C118S (Homo sapiens, UniProt P01116, C118S/C51S/C80L/G12D); experiment: K-Ras G12D(GDP) cross-linking assay (conjugate formation, TOF mass spectrometry); design: key: 0: No observed x-linking; +: 0 < x ≤ 20; ++: 20 < x ≤ 40; +++: 40 < x ≤ 100; conditions: percent covalently modified K-Ras by MS, room temperature, typical compound conc. 2, 10, 25 μM, endpoints 1 and 24 h
T1 construct: GDP-loaded K-Ras (1-169) G12D, C51S, C80L, C118S
Procedure, shortened: as §1

[3] = biological target: T2, GDP-loaded K-Ras (1-169) C51S, C80L, C118S (Homo sapiens, UniProt P01116, C118S/C51S/C80L); experiment: K-Ras WT (GDP) cross-linking assay (conjugate formation, TOF mass spectrometry); design: key: 0: No observed x-linking; +: 0 < x ≤ 20; ++: 20 < x ≤ 40; +++: 40 < x ≤ 100; conditions: percent covalently modified K-Ras by MS, room temperature, typical compound conc. 2, 10, 25 μM, endpoints 1 and 24 h
T2 construct: GDP-loaded K-Ras (1-169) C51S, C80L, C118S
Procedure, shortened: as §1

[4] = Table 4, percent covalently modified K-Ras by MS
[5] = Table 5, percent covalently modified K-Ras by MS

Row | Structure (SMILES) | G12S x-linking (%) [1, 4] | G12D x-linking (%) ([2]; Table 4) | WT x-linking (%) ([3]; Table 4) | G12S x-linking (%) [1, 5] | G12D x-linking (%) ([2]; Table 5) | WT x-linking (%) ([3]; Table 5)
1 | CC(C)N=C=NC1CCN(c2ncnc3c(F)c(-c4ccccc4F)c(Cl)cc23)CC1 [Example 3] | + (0 < x ≤ 10) | + (0 < x ≤ 20) | + (0 < x ≤ 20) |  |  | 
2 | CC(=O)N1CC1C(=O)N1CCN(c2nc(OC[C@@H]3CCCN3C)nc3c2CCN(c2cccc4cccc(C)c24)C3)CC1 (stereo partly drawn) [Example 47, 1-(2-(4-(7-(8-methylnaphthalen-1-yl)-2-(((S)-1-methylpyrrolidin-2-yl)methoxy)-5,6,7,8-tetrahydropyrido[3,4-d]pyrimidin-4-yl)piperazine-1-carbonyl)aziridin-1-yl)ethan-1-one] | + (0 < x ≤ 10) | + (0 < x ≤ 20) | + (0 < x ≤ 20) |  |  | 
3 | Fc1ccccc1-c1c(Cl)cc2c(N3CCC(N=C=Nc4ccc(Cl)cc4)CC3)ncnc2c1F [Example 6, N-(1-(6-chloro-8-fluoro-7-(2-fluorophenyl)quinazolin-4-yl)piperidin-4-yl)-N-(4-chiorophenyl)methanediimine] | 0 | 0 | 0 |  |  | 
4 | COCCN=C=N[C@H]1CC[C@@H](N(C)c2nc(OC[C@@H]3CCCN3C)nc3c2CCN(c2cccc4cccc(C)c24)C3)CC1 [Example 79, N-((1s,4R)-4-((((2-methoxyethyl)imino)methylene)amino)cyclohexyl)-N-methyl-7-(8-methylnaphthalen-1-yl)-2-(((S)-1-methylpyrrolidin-2-yl)methoxy)-5,6,7,8-tetrahydropyrido[3,4-d]pyrimidin-4-amine] |  |  |  | ++ (10 < x ≤ 100) | +++ (40 < x ≤ 100) | ++ (20 < x ≤ 100)
5 | Cc1cccc2cccc(N3CCc4c(nc(OC[C@@H]5CCCN5C)nc4N4CCC(N=C=NCCCN(C)c5ccccc5)CC4)C3)c12 [Example 90, N-methyl-N-(3-((((1-(7-(8-methylnaphthalen-1-yl)-2-(((S)-1-methylpyrrolidin-2-yl)methoxy)-5,6,7,8-tetrahydropyrido[3,4-d]pyrimidin-4-yl)piperidin-4-yl)imino)methylene)amino)propyl)aniline] |  |  |  | + (0 < x ≤ 10) | + (0 < x ≤ 20) | + (0 < x ≤ 20)
6 | COc1ccc(CN=C=NCCCN(C)c2nc(OC[C@@H]3CCCN3C)nc3c2CCN(c2cccc4cccc(C)c24)C3)cc1 [Example 33, N-(3-((((4-methoxybenzyl)imino)methylene)amino)propyl)-N-methyl-7-(8-methylnaphthalen-1-yl)-2-(((S)-1-methylpyrrolidin-2-yl)methoxy)-5,6,7,8-tetrahydropyrido[3,4-d]pyrimidin-4-amine] | ++ (10 < x ≤ 100) | +++ (40 < x ≤ 100) | ++ (20 < x ≤ 100) |  |  | 
7 | CCCN=C=NC1CCN(c2nc(=O)n(-c3c(C)ccnc3C(C)C)c3nc(-c4ccccc4F)c(F)cc23)CC1 [Example 53, 6-fluoro-7-(2-fluorophenyl)-1-(2-isopropyl-4-methylpyridin-3-yl)-4-(4-(((propylimino)methylene)amino)piperidin-1-yl)pyrido[2,3-d]pyrimidin-2(1H)-one] | + (0 < x ≤ 10) | + (0 < x ≤ 20) | + (0 < x ≤ 20) |  |  | 
8 | Cc1cccc2cccc(N3CCc4c(nc(OC[C@@H]5CCCN5C)nc4N4CCC(N=C=NCCn5ccnc5)CC4)C3)c12 [Example 87, N-(2-(1H-imidazol-1-yl)ethyl)-N-(1-(7-(8-methylnaphthalen-1-yl)-2-(((S)-1-methylpyrrolidin-2-yl)methoxy)-5,6,7,8-tetrahydropyrido[3,4-d]pyrimidin-4-yl)piperidin-4-yl)methanediimine] |  |  |  | ++ (10 < x ≤ 100) | +++ (40 < x ≤ 100) | ++ (20 < x ≤ 100)
9 | Fc1ccccc1-c1c(Cl)cc2c(N3CCC(NC4=NCCO4)CC3)ncnc2c1F [Example 13, N-(1-(6-chloro-8-fluoro-7-(2-fluorophenyl)quinazolin-4-yl)piperidin-4-yl)-4,5-dihydrooxazol-2-amine] | + (0 < x ≤ 10) | + (0 < x ≤ 20) | + (0 < x ≤ 20) |  |  | 
10 | CC(=O)N1CC1C(=O)N1CCN(c2ncnc3c(F)c(-c4ccccc4F)c(Cl)cc23)CC1 (stereo not drawn) [Example 17, 1-(2-(4-(6-chloro-8-fluoro-7-(2-fluorophenyl)quinazolin-4-yl)piperazine-1-carbonyl)aziridin-1-yl)ethan-1-one] | + (0 < x ≤ 10) | + (0 < x ≤ 20) | + (0 < x ≤ 20) |  |  | 
11 | Cc1cccc2cccc(N3CCc4c(nc(OC[C@@H]5CCCN5C)nc4N4CCN(C(=O)[C@@H]5CN5)[C@@H](CC#N)C4)C3)c12 [Example 64, 2-((S)-1-((S)-aziridine-2-carbonyl)-4-(7-(8-methylnaphthalen-1-yl)-2-(((S)-1-methylpyrrolidin-2-yl)methoxy)-5,6,7,8-tetrahydropyrido[3,4-d]pyrimidin-4-yl)piperazin-2-yl)acetonitrile] |  |  |  | + (0 < x ≤ 10) | + (0 < x ≤ 20) | + (0 < x ≤ 20)
12 | Cc1cccc2cccc(N3CCc4c(nc(OC[C@@H]5CCCN5C)nc4NCCNC4=NCCO4)C3)c12 [Example 40, (S)—N^1-(4,5-dihydrooxazol-2-yl)-N^2-(7-(8-methylnaphthalen-1-yl)-2-((1-methylpyrrolidin-2-yl)methoxy)-5,6,7,8-tetrahydropyrido[3,4-d]pyrimidin-4-yl)ethane-1,2-diamine] | + (0 < x ≤ 10) | + (0 < x ≤ 20) | + (0 < x ≤ 20) |  |  | 
13 | Fc1ccccc1-c1c(Cl)cc2c(N3CCN(C4=NCCO4)CC3)ncnc2c1F [Example 14, 2-(4-(6-chloro-8-fluoro-7-(2-fluorophenyl)quinazolin-4-yl)piperazin-1-yl)-4,5-dihydrooxazole] | + (0 < x ≤ 10) | + (0 < x ≤ 20) | + (0 < x ≤ 20) |  |  | 
14 | Cc1cccc2cccc(N3CCc4c(nc(OC[C@@H]5CCCN5C)nc4N4CCC(N(C)C(=O)C5CN5C)CC4)C3)c12 (stereo partly drawn) [Example 45, N,1-dimethyl-N-(1-(7-(8-methylnaphthalen-1-yl)-2-(((S)-1-methylpyrrolidin-2-yl)methoxy)-5,6,7,8-tetrahydropyrido[3,4-d]pyrimidin-4-yl)piperidin-4-yl)aziridine-2-carboxamide] | + (0 < x ≤ 10) | + (0 < x ≤ 20) | + (0 < x ≤ 20) |  |  | 
15 | Cc1cccc2cccc(N3CCc4c(nc(OC[C@@H]5CCCN5C)nc4N4CCN(C(=O)[C@H]5CN5)[C@@H](CC#N)C4)C3)c12 [Example 63, 2-((S)-1-((R)-aziridine-2-carbonyl)-4-(7-(8-methylnaphthalen-1-yl)-2-(((S)-1-methylpyrrolidin-2-yl)methoxy)-5,6,7,8-tetrahydropyrido[3,4-d]pyrimidin-4-yl)piperazin-2-yl)acetonitrile] |  |  |  | + (0 < x ≤ 10) | ++ (20 < x ≤ 40) | + (0 < x ≤ 20)
16 | Cc1cccc2cccc(N3CCc4c(nc(OC[C@@H]5CCCN5C)nc4N4CCC(N(C)C(=O)C5CN5S(C)(=O)=O)CC4)C3)c12 (stereo partly drawn) [Example 44, N-methyl-(1-(7-(8-methylnaphthalen-1-yl)-2-(((S)-1-methylpyrrolidin-2-yl)methoxy)-5,6,7,8-tetrahydropyrido[3,4-d]pyrimidin-4-yl)piperidin-4-yl)-1-(methylsulfonyl)aziridine-2-carboxamide] | + (0 < x ≤ 10) | + (0 < x ≤ 20) | + (0 < x ≤ 20) |  |  | 
17 | COCCN=C=N[C@H]1C[C@H](Nc2nc(OC[C@@H]3CCCN3C)nc3c2CCN(c2cccc4cccc(C)c24)C3)C1 [Example 72, N-((1r,3S)-3-((((2-methoxyethyl)imino)methylene)amino)cyclobutyl)-7-(8-methylnaphthalen-1-yl)-2-(((S)-1-methylpyrrolidin-2-yl)methoxy)-5,6,7,8-tetrahydropyrido[3,4-d]pyrimidin-4-amine] |  |  |  | ++ (10 < x ≤ 100) | +++ (40 < x ≤ 100) | ++ (20 < x ≤ 100)
